Measured values taken from patent publication US10603322B2, “Therapeutic targeting of casein kinase 1δ in breast cancer” (The Scripps Research Institute, priority 2015, dated 2020).

Columns and labels:
[1] = system: MDA-MB-231 tumor xenografts; assay: Established orthotopic tumor xenograft; type: in vivo, nude mice; settings: 20 mg/kg daily i.p.
Excerpt: All animal studies are approved by the Scripps Florida IACUC. Stable pools of MDA-MB-231-Luc, MDA-MB-231, MDA-MB-468, SKBR3 or BT474 cells were established by injection of 2×10^6 cancer cells into the mammary fat pads of 6-week old female athymic nude mice (Charles River Laboratories). Establishment of BCM-4013 patient derived xenografts were as described (19). Briefly, fresh xenograft tumor fragments (˜1 mm^3) were transplanted into the cleared mammary fat pad of recipient SCID/Bg mice (Charles River Laboratories). Mice were treated with SR-3029 or vehicle (10:10:80, DMSO:Tween-80:Water) at 20 mg/kg daily by i.p. injection. Tumor volumes were measured as the indicated intervals using calipers or by luminescence imaging using the IVIS 100 imager (exposure time, 1-60 sec; binning 8; field of view 15-cm; f/stop 1; open filter) following subcutaneous injection of luciferin (15 mg/ml, Goldbio Technology). Average radiance (p/s/cm^2/sr) was determined from tumor region-of-interest (ROI) using Living-Image (Xenogen) analysis software.
For apoptotic detection in cryosections tumors and small intestines were fixed in 10% buffered formalin for 2 hr, incubated in 20% sucrose overnight and embedded in OCT. Frozen sections ([…]) were mounted and stained using the ApopTag Red In Situ Kit according to the manufacturer instructions (CHEMICON). For H&E staining, tissues were fixed in 10% buffered formalin for 48 hr, transferred to 70% ethanol/PBS and embedded in paraffin. Staining was performed on […] sections following deparaffinization (AML Laboratories).

[2] = system: activated β-catenin signaling; assay: Wnt/β-catenin markers in MDA-MB-231 tumors of treated mice; type: in vivo; settings: 20 mg/kg once daily i.p.
Excerpt: All animal studies are approved by the Scripps Florida IACUC. Stable pools of MDA-MB-231-Luc, MDA-MB-231, MDA-MB-468, SKBR3 or BT474 cells were established by injection of 2×10^6 cancer cells into the mammary fat pads of 6-week old female athymic nude mice (Charles River Laboratories). Establishment of BCM-4013 patient derived xenografts were as described (19). Briefly, fresh xenograft tumor fragments (˜1 mm^3) were transplanted into the cleared mammary fat pad of recipient SCID/Bg mice (Charles River Laboratories). Mice were treated with SR-3029 or vehicle (10:10:80, DMSO:Tween-80:Water) at 20 mg/kg daily by i.p. injection. Tumor volumes were measured as the indicated intervals using calipers or by luminescence imaging using the IVIS 100 imager (exposure time, 1-60 sec; binning 8; field of view 15-cm; f/stop 1; open filter) following subcutaneous injection of luciferin (15 mg/ml, Goldbio Technology). Average radiance (p/s/cm^2/sr) was determined from tumor region-of-interest (ROI) using Living-Image (Xenogen) analysis software. SDS-PAGE gel electrophoresis was performed using NuPAGE 4-12% Bis-Tris gels (Invitrogen) and transferred to PVDF membranes by semi-dry transfer using trans-blot transfer medium (Biorad). Membranes were blocked in Odyssey blocking buffer (LI-COR Biosciences) and incubated overnight at 4° C. with primary antibodies. After repeated washes with TBST (20 mM Tris, pH 7.6, 140 mM NaCl and 0.1% Tween-20) blots were incubated with the appropriate IRDye-conjugated secondary antibody (LI-COR Biosciences) and imaged using the LI-COR Odyssey. Bands were quantified using the Odyssey software (LI-COR Biosciences). The following antibodies were used in this study: CK1δ and Histone H4 (Abcam), CK1ε, c-Myc (9E10), Cyclin-D1 and β-actin (Santa Cruz), β-catenin (Cell Signaling), GAPDH (Millipore) and CD44 (R&D Systems). Total RNA was obtained using the RNeasy Plus Mini Kit (Qiagen) and 1-2 μg of RNA was reverse transcribed with Superscript III First Strand Synthesis System (Life Technologies). Quantitative PCR was performed using the Power SYBR Green PCR Master Mix (Life Technologies) and the ABI7900HT Fast Real-Time PCR System. Intron-spanning gene-specific primer pairs were designed using the Primer3 algorithm and relative expression values for each gene of interest obtained by normalizing to GAPDH mRNA expression using the ^ΔΔCt method.

Fc1cccc(-n2cnc3c(NCc4nc5ccc(F)c(F)c5[nH]4)nc(N4CCOCC4)nc32)c1 [SR-3029]
lifespan (Kaplan-Meier survival) [1]: significantly prolonged lifespan
tumor apoptosis (TUNEL) [1]: fulminant apoptosis
tumor growth ([1]; tumors 100-mm^3 before treatment): marked tumor growth inhibition
CCND1, WNT3, WNT9A and RARA mRNA transcripts in tumors ([2]; 7 days): decreases
SFRP1 transcripts in tumors ([2]; 7 days): marked increase
expression of nuclear β-catenin in tumors ([2]; 7 days): markedly reduced
CCND1 protein in tumors ([2]; day 7): down-regulation
